# Measurements as given in patent US20230301968A1 (ZEPHAPHARM LTD, priority 2020, published 2023).
# How the values were obtained:
# CYP1A2 [1] = target: T1, CYP1A2 (Homo sapiens, UniProt P05177); assay: Cytochrome P450 reaction phenotyping, recombinant CYP1A2; type: in vitro ADME
# T1 construct: purchased
# T1 sequence (P05177 1-516): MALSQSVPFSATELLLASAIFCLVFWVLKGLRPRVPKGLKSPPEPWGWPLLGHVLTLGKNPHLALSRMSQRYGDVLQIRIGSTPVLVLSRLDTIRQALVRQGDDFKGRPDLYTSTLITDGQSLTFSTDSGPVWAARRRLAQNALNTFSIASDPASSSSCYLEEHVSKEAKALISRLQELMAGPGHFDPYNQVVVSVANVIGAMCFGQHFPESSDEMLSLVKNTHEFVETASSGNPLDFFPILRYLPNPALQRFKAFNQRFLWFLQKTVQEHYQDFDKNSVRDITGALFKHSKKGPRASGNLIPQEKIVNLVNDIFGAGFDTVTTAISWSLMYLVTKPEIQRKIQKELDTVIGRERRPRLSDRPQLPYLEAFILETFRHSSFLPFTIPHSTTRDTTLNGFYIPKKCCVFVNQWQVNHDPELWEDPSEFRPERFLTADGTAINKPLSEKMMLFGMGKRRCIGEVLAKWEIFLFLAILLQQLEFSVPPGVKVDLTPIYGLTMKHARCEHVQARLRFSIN
# Experimental: (§1) The amount of test compound remaining at each time point was analysed by LC-MS/MS. Incubations in control recombinant enzymes were also performed to assess non-enzymatic mediated stability.
# (§2) Incubations were also performed using control Bactosomes™ (no cytochrome P450 enzymes present) to reveal any non-enzymatic degradation. Control compounds known to be metabolised specifically by each P450 isoform were included. All incubations were performed singularly for each test compound. […] The reactions were stopped by transferring an aliquot of incubate to quench solvent at the appropriate time points, in a 1:3 ratio. The termination plates were centrifuged at 3,000 rpm for 20 min at 4° C. to precipitate the protein. Following protein precipitation, the sample supernatants were analysed using LC-MS/MS, along with internal standard (1:1 supernatant to internal standard).
# (§3) Following correction for any loss in the incubations with the control Bactosomes™, from a plot of In peak area ratio (compound peak area/internal standard peak area) against time, the gradient of the line was determined. Subsequently, half-life (t½) was calculated using the equations below: […]
# CYP2C8 = target: T2, CYP2C8 (Homo sapiens, UniProt P10632); assay: Cytochrome P450 reaction phenotyping, recombinant CYP2C8; type: in vitro ADME; conditions: for t½: 1 µM substrate, recombinant CYP2C8, NADPH
# T2 construct: purchased
# T2 sequence (P10632 1-490): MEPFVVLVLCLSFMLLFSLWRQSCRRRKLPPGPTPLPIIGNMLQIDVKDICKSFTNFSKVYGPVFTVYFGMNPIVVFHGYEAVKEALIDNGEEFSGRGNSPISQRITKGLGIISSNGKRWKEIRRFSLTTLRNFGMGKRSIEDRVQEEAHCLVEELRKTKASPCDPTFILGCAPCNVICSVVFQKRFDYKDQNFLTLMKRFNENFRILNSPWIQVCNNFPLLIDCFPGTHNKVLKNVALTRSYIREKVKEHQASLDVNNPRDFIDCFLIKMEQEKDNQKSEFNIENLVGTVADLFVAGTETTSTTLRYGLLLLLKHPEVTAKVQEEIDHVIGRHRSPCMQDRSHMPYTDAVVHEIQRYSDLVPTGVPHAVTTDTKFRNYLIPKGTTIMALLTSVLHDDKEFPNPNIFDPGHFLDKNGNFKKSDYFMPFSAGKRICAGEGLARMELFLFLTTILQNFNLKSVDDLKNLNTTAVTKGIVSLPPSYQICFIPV
# Experimental: as §1, §2, §3
# CYP2C9 = CYP2C9 (Homo sapiens, UniProt P11712); assay: Cytochrome P450 reaction phenotyping, recombinant CYP2C9; conditions: for t½: 1 µM substrate, recombinant CYP2C9, NADPH
# CYP2C9, sequence (P11712 whole entry): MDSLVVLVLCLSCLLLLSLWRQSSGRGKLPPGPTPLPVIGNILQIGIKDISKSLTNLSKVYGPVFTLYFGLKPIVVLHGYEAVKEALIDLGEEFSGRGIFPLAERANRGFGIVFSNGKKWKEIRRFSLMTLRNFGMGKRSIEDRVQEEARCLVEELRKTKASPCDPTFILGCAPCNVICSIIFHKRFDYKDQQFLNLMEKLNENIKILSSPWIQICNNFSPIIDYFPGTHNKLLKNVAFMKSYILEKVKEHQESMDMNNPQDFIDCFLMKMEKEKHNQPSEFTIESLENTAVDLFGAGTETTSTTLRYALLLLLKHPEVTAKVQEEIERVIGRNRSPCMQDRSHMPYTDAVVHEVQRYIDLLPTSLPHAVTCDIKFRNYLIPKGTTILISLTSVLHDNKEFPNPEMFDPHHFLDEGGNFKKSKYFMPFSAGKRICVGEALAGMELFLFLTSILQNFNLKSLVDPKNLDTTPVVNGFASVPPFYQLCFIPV
# Experimental: as §1, §2, §3
# CYP2C19 = target: T3, CYP2C19 (Homo sapiens, UniProt P33261); assay: Cytochrome P450 reaction phenotyping, recombinant CYP2C19; type: in vitro ADME; conditions: for t½: 1 µM substrate, recombinant CYP2C19, NADPH
# T3 construct: purchased
# T3 sequence (P33261 whole entry): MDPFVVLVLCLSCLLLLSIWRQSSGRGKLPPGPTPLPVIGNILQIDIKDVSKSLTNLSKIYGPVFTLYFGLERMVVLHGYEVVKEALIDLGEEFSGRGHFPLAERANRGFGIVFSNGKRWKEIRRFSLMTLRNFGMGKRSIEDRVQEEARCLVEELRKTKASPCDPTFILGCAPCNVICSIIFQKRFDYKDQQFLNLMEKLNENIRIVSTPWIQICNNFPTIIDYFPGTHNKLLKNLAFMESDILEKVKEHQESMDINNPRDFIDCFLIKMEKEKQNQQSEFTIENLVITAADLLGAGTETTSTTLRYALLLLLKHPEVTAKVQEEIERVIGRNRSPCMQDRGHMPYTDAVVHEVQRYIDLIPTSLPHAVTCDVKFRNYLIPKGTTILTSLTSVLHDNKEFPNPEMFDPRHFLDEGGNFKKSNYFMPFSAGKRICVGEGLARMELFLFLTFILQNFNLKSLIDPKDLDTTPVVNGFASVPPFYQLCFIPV
# Experimental: as §1, §2, §3
# CYP3A4 = target: T4, CYP3A4 (Homo sapiens, UniProt P08684); assay: Cytochrome P450 reaction phenotyping, recombinant CYP3A4; type: in vitro ADME
# T4 construct: purchased
# T4 sequence (P08684 whole entry): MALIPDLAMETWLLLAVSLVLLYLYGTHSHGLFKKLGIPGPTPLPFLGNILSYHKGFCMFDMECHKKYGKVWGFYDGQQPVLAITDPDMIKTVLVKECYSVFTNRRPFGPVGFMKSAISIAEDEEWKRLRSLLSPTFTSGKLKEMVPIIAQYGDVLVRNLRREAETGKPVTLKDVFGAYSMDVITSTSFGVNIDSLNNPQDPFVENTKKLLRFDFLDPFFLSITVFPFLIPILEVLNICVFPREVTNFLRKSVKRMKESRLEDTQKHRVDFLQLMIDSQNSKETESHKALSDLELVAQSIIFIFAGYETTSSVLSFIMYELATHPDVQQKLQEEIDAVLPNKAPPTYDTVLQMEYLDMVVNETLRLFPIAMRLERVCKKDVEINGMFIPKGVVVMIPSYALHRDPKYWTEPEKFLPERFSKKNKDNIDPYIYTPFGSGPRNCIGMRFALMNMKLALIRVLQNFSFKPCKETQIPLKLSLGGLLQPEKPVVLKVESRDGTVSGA
# Experimental: as §1, §2, §3
# [2] = Stability in human cryopreserved hepatocytes with or without CYP1A2 inhibitors (assays 1 to 3); conditions: human, hepatocytes; for half-life at 1 µM: t½
# Experimental: (§4) In each assay, the amount of test compound remaining at each time point was analysed by LC-MS/MS.
# (§5) The final incubation volume was 500 µL. […] A positive control compound, ethoxycoumarin, for CYP1A2 (as CYP1A2 substrate) was included. […] The reactions were stopped by transferring 50 µL of incubate to 100 µL acetonitrile containing internal standard at the appropriate time points (0, 5, 10, 20, 40 and 60 min). The termination plates were centrifuged at 2500 rpm at 4° C. for 30 min to precipitate the protein.
# (§6) From a plot of In peak area ratio (compound peak area/internal standard peak area) against time, the gradient of the line was determined. Subsequently, half-life (t½) and intrinsic clearance (CLint) were calculated using the equations below: […]
# CYP1A2 [3] = assay: as above; conditions: human, hepatocytes; for half-life at 1 µM: t½
# Experimental: as §4, §5, §6
structure (smiles),measurement,setting,value
"COC(=O)Nc1nc2cc(C(=O)c3ccc(F)cc3)ccc2[nH]1 [Flubendazole, methyl N-[6-(4-fluorobenzoyl)-1H-benzimidazol-2-yl]carbamate]",Compound Remaining (% of 0 min),"CYP1A2 [1]; CYP1A2, 0 min",100%
same,Compound Remaining (% of 0 min),"CYP1A2 [1]; CYP1A2, 5 min",38.6%
same,Compound Remaining (% of 0 min),"CYP1A2 [1]; CYP1A2, 15 min",1.30%
same,Compound Remaining (% of 0 min),"CYP1A2 [1]; CYP1A2, 30 min",0.0440%
same,Compound Remaining (% of 0 min),"CYP1A2 [1]; CYP1A2, 45 min",0.002%
same,half-life at 1 µM,"CYP1A2 [1]; human, pH 7.4, 1 µM substrate, recombinant CYP1A2, NADPH, 30 and 45 minute time points excluded, read-out: t½",2.34 min
same,t½,CYP2C8,11.5 h
same,t½,CYP2C8; listed as flubendazole,≥ 2.45 h
same,Compound Remaining (% of 0 min),"CYP2C8; CYP2C8, 0 min",100%
same,Compound Remaining (% of 0 min),"CYP2C8; CYP2C8, 5 min",100%
same,Compound Remaining (% of 0 min),"CYP2C8; CYP2C8, 30 min",99.4%
same,Compound Remaining (% of 0 min),"CYP2C8; CYP2C8, 45 min",95.3%
same,t½,CYP2C9,95.33 h
same,t½,CYP2C9; listed as flubendazole,≥ 2.45 h
same,Compound Remaining (% of 0 min),"CYP2C9; CYP2C9, 0 min",100%
same,Compound Remaining (% of 0 min),"CYP2C9; CYP2C9, 5 min",97.4%
same,Compound Remaining (% of 0 min),"CYP2C9; CYP2C9, 15 min",101%
same,Compound Remaining (% of 0 min),"CYP2C9; CYP2C9, 30 min",97.9%
same,Compound Remaining (% of 0 min),"CYP2C9; CYP2C9, 45 min",99.0%
same,t½,CYP2C19,13.6 h
same,t½,CYP2C19; listed as flubendazole,≥ 2.45 h
same,Compound Remaining (% of 0 min),"CYP2C19; CYP2C19, 0 min",100%
same,Compound Remaining (% of 0 min),"CYP2C19; CYP2C19, 5 min",99.5%
same,Compound Remaining (% of 0 min),"CYP2C19; CYP2C19, 15 min",97.7%
same,Compound Remaining (% of 0 min),"CYP2C19; CYP2C19, 30 min",98.8%
same,Compound Remaining (% of 0 min),"CYP2C19; CYP2C19, 45 min",95.5%
same,Compound Remaining (% of 0 min),"CYP3A4; CYP3A4, 0 min",100%
same,Compound Remaining (% of 0 min),"CYP3A4; CYP3A4, 5 min",94.6%
same,Compound Remaining (% of 0 min),"CYP3A4; CYP3A4, 15 min",98.2%
same,Compound Remaining (% of 0 min),"CYP3A4; CYP3A4, 30 min",100%
same,Compound Remaining (% of 0 min),"CYP3A4; CYP3A4, 45 min",97.5%
same,half-life at 1 µM,"CYP3A4; human, pH 7.4, 1 µM substrate, recombinant CYP3A4, NADPH, minus value = not metabolised, read-out: t½",≥ 2.45 h
same,hepatocyte CLint at 1 µM,"[2]; CLint, assay 2, no inhibitor",8.62 ± 2.23 µL/min/1e6 cells
same,hepatocyte CLint at 1 µM,"[2]; CLint, assay 3, no inhibitor",16.7 ± 2.06 µL/min/1e6 cells
same,hepatocyte CLint at 1 µM,"[2]; intrinsic clearance, assay 1 (pre-screening assay), no inhibitor",15.2 ± 1.09 µL/min/1e6 cells
same,half-life at 1 µM,"[2]; assay 2, no inhibitor",2.68 h
same,half-life at 1 µM,"[2]; assay 3, no inhibitor",1.38 h
same,hepatocyte CLint at 1 µM,"CYP1A2 [3]; assay 2, fluvoxamine 10 µM",3.95 ± 0.941 µL/min/1e6 cells
same,hepatocyte CLint at 1 µM,"CYP1A2 [3]; assay 2, furafylline 1 µM",2.05 ± 2.04 µL/min/1e6 cells
same,hepatocyte CLint at 1 µM,"CYP1A2 [3]; assay 2, furafylline 3 µM",1.7 ± 0.885 µL/min/1e6 cells
same,hepatocyte CLint at 1 µM,"CYP1A2 [3]; assay 2, thiabendazole 10 µM",2.96 ± 1.17 µL/min/1e6 cells
same,hepatocyte CLint at 1 µM,"CYP1A2 [3]; assay 3, cimetidine 10 µM",5.43 ± 1.9 µL/min/1e6 cells
same,hepatocyte CLint at 1 µM,"CYP1A2 [3]; assay 3, cimetidine 100 µM",10.9 ± 1.27 µL/min/1e6 cells
same,hepatocyte CLint at 1 µM,"CYP1A2 [3]; assay 3, cimetidine 300 µM",9.19 ± 1.7 µL/min/1e6 cells
same,hepatocyte CLint at 1 µM,"CYP1A2 [3]; assay 3, mexiletine 10 µM",0.861 ± 0.522 µL/min/1e6 cells
same,hepatocyte CLint at 1 µM,"CYP1A2 [3]; assay 3, mexiletine 300 µM",5.85 ± 1.25 µL/min/1e6 cells
same,half-life at 1 µM,"CYP1A2 [3]; assay 2, fluvoxamine 10 µM",5.85 h
same,half-life at 1 µM,"CYP1A2 [3]; assay 2, furafylline 1 µM",11.3 h
same,half-life at 1 µM,"CYP1A2 [3]; assay 2, furafylline 3 µM",13.6 h
same,half-life at 1 µM,"CYP1A2 [3]; assay 2, thiabendazole 10 µM",7.8 h
same,half-life at 1 µM,"CYP1A2 [3]; assay 3, cimetidine 10 µM",4.25 h
same,half-life at 1 µM,"CYP1A2 [3]; assay 3, cimetidine 100 µM",2.13 h
same,half-life at 1 µM,"CYP1A2 [3]; assay 3, cimetidine 300 µM",2.52 h
same,half-life at 1 µM,"CYP1A2 [3]; assay 3, mexiletine 10 µM",26.8 h
same,half-life at 1 µM,"CYP1A2 [3]; assay 3, mexiletine 300 µM",3.95 h
